Tests used:
Details in all cases: Compound concentration 1000.0 nM
[1] = system: Tyrosine-protein kinase ABL1 (Homo sapiens), P00519 [F317I]
[2] = system: ALK tyrosine kinase receptor (Homo sapiens), Q9UM73 [L1196M]
[3] = biological target: Tyrosine-protein kinase receptor UFO (Homo sapiens) (UniProt P30530)
[4] = biological target: Calcium/calmodulin-dependent protein kinase type 1B (Homo sapiens) (UniProt Q6P2M8)
[5] = biological target: Calcium/calmodulin-dependent protein kinase type 1D (Homo sapiens) (UniProt Q8IU85)
[6] = biological target: Calcium/calmodulin-dependent protein kinase type II subunit delta (Homo sapiens) (UniProt Q13557)
[7] = biological target: Calcium/calmodulin-dependent protein kinase type II subunit gamma (Homo sapiens) (UniProt Q13555)
[8] = biological target: Cyclin-dependent kinase-like 3 (Homo sapiens) (UniProt Q8IVW4)
[9] = biological target: Serine/threonine-protein kinase DCLK1 (Homo sapiens) (UniProt O15075)
[10] = biological target: Epithelial discoidin domain-containing receptor 1 (Homo sapiens) (UniProt Q08345)
Chain of Epithelial discoidin domain-containing receptor 1 (Homo sapiens) (Q08345 whole entry, the tested form may be a part): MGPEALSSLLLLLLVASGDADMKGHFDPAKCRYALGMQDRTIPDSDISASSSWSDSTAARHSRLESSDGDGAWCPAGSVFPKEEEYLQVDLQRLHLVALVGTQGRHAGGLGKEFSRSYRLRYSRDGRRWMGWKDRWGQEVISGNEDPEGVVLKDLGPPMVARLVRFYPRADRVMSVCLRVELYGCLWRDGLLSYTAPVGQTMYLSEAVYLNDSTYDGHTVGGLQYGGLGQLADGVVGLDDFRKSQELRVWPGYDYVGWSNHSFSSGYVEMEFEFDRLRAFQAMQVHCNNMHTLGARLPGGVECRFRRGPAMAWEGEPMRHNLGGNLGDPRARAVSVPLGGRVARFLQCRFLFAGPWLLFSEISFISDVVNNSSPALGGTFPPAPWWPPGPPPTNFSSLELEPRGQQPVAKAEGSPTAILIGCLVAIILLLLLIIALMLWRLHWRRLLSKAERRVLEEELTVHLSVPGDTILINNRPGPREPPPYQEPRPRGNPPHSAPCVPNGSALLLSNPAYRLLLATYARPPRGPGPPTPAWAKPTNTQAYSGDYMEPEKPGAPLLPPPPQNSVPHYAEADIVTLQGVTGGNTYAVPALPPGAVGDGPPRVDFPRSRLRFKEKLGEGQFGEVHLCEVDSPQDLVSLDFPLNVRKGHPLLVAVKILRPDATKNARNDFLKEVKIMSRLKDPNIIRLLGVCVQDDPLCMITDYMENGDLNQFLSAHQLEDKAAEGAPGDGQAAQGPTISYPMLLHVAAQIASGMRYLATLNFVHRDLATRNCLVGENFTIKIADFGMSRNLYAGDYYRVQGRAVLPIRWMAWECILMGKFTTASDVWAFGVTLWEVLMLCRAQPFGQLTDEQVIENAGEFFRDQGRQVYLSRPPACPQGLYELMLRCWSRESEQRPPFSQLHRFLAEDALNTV

[11] = biological target: Ephrin type-A receptor 2 (Homo sapiens) (UniProt P29317)
[12] = biological target: Ephrin type-B receptor 4 (Homo sapiens) (UniProt P54760)
[13] = biological target: Focal adhesion kinase 1 (Homo sapiens) (UniProt Q05397)
[14] = biological target: Beta-adrenergic receptor kinase 1 (Homo sapiens) (UniProt P25098)
[15] = biological target: G protein-coupled receptor kinase 4 (Homo sapiens) (UniProt P32298)
Chain of G protein-coupled receptor kinase 4 (Homo sapiens) (P32298 whole entry, looked up): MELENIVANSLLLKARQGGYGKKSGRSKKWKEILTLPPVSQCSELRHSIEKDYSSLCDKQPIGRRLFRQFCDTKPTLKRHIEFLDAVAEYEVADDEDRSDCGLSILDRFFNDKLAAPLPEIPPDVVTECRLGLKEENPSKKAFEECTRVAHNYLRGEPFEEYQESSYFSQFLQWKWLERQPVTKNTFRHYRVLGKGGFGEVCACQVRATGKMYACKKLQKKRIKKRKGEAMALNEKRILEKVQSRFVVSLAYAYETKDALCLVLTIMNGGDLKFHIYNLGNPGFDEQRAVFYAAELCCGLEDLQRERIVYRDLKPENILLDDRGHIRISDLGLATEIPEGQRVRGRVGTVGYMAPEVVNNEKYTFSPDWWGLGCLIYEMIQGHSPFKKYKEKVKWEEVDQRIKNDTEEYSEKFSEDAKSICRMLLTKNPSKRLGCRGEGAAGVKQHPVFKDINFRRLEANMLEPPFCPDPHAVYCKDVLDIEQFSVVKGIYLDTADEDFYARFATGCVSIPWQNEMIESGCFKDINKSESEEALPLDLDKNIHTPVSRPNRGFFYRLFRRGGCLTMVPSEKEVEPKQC

[16] = biological target: Insulin-like growth factor 1 receptor (Homo sapiens) (UniProt P08069)
[17] = biological target: Inhibitor of nuclear factor kappa-B kinase subunit alpha (Homo sapiens) (UniProt O15111)
[18] = biological target: Inhibitor of nuclear factor kappa-B kinase subunit beta (Homo sapiens) (UniProt O14920)
[19] = biological target: Insulin receptor-related protein (Homo sapiens) (UniProt P14616)
[20] = biological target: Interleukin-1 receptor-associated kinase 1 (Homo sapiens) (UniProt P51617)
[21] = biological target: Mitogen-activated protein kinase 10 (Homo sapiens) (UniProt P53779)
[22] = system: Mast/stem cell growth factor receptor Kit (Homo sapiens), P10721 [D816V]
[23] = biological target: Mast/stem cell growth factor receptor Kit (Homo sapiens) (UniProt P10721)
[24] = biological target: LIM domain kinase 2 (Homo sapiens) (UniProt P53671)
[25] = biological target: Leucine-rich repeat serine/threonine-protein kinase 2 (Homo sapiens) (UniProt Q5S007)
[26] = biological target: Leukocyte tyrosine kinase receptor (Homo sapiens) (UniProt P29376)
[27] = biological target: Mitogen-activated protein kinase kinase kinase 4 (Homo sapiens) (UniProt Q9Y6R4)
[28] = biological target: Mitogen-activated protein kinase kinase kinase kinase 3 (Homo sapiens) (UniProt Q8IVH8)
Chain of Mitogen-activated protein kinase kinase kinase kinase 3 (Homo sapiens) (Q8IVH8 whole entry): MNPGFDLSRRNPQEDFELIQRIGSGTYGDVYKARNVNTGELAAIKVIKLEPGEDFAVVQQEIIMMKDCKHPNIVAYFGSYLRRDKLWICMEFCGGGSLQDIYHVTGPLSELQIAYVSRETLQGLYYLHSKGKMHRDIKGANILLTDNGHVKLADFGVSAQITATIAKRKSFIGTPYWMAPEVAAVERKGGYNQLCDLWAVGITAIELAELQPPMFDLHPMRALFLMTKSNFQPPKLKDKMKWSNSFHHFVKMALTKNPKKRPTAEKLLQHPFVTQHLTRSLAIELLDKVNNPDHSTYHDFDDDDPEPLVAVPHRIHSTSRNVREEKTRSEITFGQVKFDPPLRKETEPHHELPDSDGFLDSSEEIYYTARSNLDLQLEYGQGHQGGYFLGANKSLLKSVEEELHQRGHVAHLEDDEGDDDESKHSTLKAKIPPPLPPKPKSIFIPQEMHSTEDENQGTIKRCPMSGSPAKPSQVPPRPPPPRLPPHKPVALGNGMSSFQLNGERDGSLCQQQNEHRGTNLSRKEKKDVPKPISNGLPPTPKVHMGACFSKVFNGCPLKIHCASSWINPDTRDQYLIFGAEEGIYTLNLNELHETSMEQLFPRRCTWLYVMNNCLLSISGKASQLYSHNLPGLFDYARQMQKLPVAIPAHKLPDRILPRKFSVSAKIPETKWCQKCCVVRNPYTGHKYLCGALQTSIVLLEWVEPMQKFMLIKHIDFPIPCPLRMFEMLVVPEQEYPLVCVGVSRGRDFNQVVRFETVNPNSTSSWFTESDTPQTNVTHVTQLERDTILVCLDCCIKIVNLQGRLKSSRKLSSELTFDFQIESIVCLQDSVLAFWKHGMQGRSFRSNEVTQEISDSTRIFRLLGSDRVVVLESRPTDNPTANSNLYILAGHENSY

[29] = biological target: Mitogen-activated protein kinase kinase kinase kinase 5 (Homo sapiens) (UniProt Q9Y4K4)
Chain of Mitogen-activated protein kinase kinase kinase kinase 5 (Homo sapiens) (Q9Y4K4 whole entry, looked up): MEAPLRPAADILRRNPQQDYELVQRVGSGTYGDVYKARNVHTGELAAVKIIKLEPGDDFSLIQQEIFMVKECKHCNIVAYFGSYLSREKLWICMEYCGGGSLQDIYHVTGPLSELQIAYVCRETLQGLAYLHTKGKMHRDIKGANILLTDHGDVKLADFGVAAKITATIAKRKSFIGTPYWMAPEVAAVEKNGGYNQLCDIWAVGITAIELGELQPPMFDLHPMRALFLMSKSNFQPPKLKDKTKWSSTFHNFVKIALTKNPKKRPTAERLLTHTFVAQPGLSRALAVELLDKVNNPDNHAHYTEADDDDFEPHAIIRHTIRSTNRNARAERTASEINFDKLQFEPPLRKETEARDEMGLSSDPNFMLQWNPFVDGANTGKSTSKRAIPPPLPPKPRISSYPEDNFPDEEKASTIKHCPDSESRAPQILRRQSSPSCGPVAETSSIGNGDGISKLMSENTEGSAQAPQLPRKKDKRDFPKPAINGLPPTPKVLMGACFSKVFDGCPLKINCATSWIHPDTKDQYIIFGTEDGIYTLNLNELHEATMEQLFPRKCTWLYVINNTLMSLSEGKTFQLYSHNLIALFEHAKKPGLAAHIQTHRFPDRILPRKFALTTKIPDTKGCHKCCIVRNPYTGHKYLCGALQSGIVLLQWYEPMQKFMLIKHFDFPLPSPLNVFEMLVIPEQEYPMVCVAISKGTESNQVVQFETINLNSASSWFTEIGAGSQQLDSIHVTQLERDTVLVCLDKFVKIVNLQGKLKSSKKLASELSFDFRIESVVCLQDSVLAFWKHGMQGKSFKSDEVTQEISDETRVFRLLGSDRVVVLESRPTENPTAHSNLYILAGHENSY

[30] = biological target: MAP kinase-activated protein kinase 5 (Homo sapiens) (UniProt Q8IW41)
[31] = biological target: Dual specificity mitogen-activated protein kinase kinase 4 (Homo sapiens) (UniProt P45985)
[32] = biological target: Maternal embryonic leucine zipper kinase (Homo sapiens) (UniProt Q14680)
[33] = biological target: Myosin light chain kinase (Homo sapiens) (UniProt Q32MK0)
[34] = biological target: Serine/threonine-protein kinase Nek5 (Homo sapiens) (UniProt Q6P3R8)
[35] = biological target: Serine/threonine-protein kinase Nek9 (Homo sapiens) (UniProt Q8TD19)
[36] = biological target: Platelet-derived growth factor receptor alpha (Homo sapiens) (UniProt P16234)
[37] = biological target: Cyclin-dependent kinase 15 (Homo sapiens) (UniProt Q96Q40)
Chain of Cyclin-dependent kinase 15 (Homo sapiens) (Q96Q40 whole entry): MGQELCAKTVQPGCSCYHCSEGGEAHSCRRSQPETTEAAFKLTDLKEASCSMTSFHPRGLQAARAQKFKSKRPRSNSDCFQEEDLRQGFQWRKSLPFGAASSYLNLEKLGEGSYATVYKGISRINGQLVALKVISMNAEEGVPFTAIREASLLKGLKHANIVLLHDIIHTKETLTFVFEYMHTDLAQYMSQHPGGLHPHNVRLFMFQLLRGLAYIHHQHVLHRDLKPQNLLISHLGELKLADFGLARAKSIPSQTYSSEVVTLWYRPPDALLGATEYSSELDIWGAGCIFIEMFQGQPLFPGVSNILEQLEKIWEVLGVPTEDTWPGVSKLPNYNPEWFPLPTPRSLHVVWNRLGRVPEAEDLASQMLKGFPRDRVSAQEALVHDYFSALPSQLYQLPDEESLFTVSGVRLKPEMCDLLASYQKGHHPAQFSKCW

[38] = biological target: Membrane-associated tyrosine- and threonine-specific cdc2-inhibitory kinase (Homo sapiens) (UniProt Q99640)
[39] = biological target: Protein kinase C iota type (Homo sapiens) (UniProt P41743)
[40] = biological target: Serine/threonine-protein kinase Sgk3 (Homo sapiens) (UniProt Q96BR1)
[41] = biological target: SRSF protein kinase 1 (Homo sapiens) (UniProt Q96SB4)
[42] = biological target: Serine/threonine-protein kinase 16 (Homo sapiens) (UniProt O75716)
[43] = biological target: Serine/threonine-protein kinase 36 (Homo sapiens) (UniProt Q9NRP7)
[44] = biological target: Dual specificity testis-specific protein kinase 1 (Homo sapiens) (UniProt Q15569)
[45] = biological target: Serine/threonine-protein kinase TNNI3K (Homo sapiens) (UniProt Q59H18)
Chain of Serine/threonine-protein kinase TNNI3K (Homo sapiens) (Q59H18 whole entry): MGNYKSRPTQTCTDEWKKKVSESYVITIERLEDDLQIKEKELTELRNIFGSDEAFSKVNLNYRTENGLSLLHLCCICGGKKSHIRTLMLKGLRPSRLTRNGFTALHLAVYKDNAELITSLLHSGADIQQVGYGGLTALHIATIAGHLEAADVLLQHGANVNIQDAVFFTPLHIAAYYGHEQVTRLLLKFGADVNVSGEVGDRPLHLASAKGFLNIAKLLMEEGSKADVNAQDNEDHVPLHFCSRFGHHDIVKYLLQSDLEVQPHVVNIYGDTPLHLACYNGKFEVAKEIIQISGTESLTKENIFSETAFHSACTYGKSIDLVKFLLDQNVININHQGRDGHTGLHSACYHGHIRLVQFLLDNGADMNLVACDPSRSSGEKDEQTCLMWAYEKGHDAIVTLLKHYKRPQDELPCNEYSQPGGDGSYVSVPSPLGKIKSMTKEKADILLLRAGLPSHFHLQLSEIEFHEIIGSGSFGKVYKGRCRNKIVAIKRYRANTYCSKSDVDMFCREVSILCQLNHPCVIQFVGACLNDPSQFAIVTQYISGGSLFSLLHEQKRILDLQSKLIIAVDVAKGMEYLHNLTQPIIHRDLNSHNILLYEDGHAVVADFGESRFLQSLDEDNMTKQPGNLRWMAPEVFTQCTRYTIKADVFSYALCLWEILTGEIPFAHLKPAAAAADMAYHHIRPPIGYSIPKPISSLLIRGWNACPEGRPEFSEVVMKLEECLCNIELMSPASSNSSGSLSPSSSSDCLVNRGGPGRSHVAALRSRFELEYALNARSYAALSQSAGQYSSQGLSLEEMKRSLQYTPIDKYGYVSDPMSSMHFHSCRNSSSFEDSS

Chain of Calcium/calmodulin-dependent protein kinase type 1B (Homo sapiens) (Q6P2M8 whole entry): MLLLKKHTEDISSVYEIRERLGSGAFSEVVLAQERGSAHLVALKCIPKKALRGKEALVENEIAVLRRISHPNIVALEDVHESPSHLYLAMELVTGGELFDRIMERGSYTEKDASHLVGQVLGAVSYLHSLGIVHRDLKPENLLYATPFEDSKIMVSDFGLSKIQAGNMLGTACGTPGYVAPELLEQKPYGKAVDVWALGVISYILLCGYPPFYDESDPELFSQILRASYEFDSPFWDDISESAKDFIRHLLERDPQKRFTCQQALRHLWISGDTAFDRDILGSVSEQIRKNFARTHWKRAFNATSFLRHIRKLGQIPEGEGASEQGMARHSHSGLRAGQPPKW

Question: How did the residual activity [1] turn out when `CSc1cccnc1N1CCN(Cc2nc3ccccc3[nH]2)CC1` [A-769] was run?
Answer: 74%

Question: What about the residual activity [2] of the same compound?
Answer: 100%

Question: And the residual activity [3]?
Answer: 100%

Question: And the residual activity [4]?
Answer: 100%

Question: What about the residual activity [5] of the same compound?
Answer: 100%

Question: What about the residual activity [6] of the same compound?
Answer: 100%

Question: And the residual activity [7]?
Answer: 100%

Question: And the residual activity [8]?
Answer: 100%

Question: And the residual activity [9]?
Answer: 82%

Question: And the residual activity [10]?
Answer: 100%

Question: What about the residual activity [11] of the same compound?
Answer: 100%

Question: What about the residual activity [12] of the same compound?
Answer: 100%

Question: And the residual activity [13]?
Answer: 100%

Question: And the residual activity [14]?
Answer: 93%

Question: What about the residual activity [15] of the same compound?
Answer: 88%

Question: What about the residual activity [16] of the same compound?
Answer: 100%

Question: And the residual activity [17]?
Answer: 98%

Question: What about the residual activity [18] of the same compound?
Answer: 86%

Question: What about the residual activity [19] of the same compound?
Answer: 94%

Question: What about the residual activity [20] of the same compound?
Answer: 73%

Question: And the residual activity [21]?
Answer: 66%

Question: And the residual activity [22]?
Answer: 90%

Question: And the residual activity [23]?
Answer: 72%

Question: And the residual activity [24]?
Answer: 100%

Question: And the residual activity [25]?
Answer: 97%

Question: What about the residual activity [26] of the same compound?
Answer: 89%

Question: What about the residual activity [27] of the same compound?
Answer: 100%

Question: What about the residual activity [28] of the same compound?
Answer: 100%

Question: What about the residual activity [29] of the same compound?
Answer: 100%

Question: What about the residual activity [30] of the same compound?
Answer: 84%

Question: What about the residual activity [31] of the same compound?
Answer: 89%

Question: What about the residual activity [32] of the same compound?
Answer: 46%

Question: And the residual activity [33]?
Answer: 100%

Question: What about the residual activity [34] of the same compound?
Answer: 100%

Question: What about the residual activity [35] of the same compound?
Answer: 100%

Question: What about the residual activity [36] of the same compound?
Answer: 89%

Question: What about the residual activity [37] of the same compound?
Answer: 100%

Question: What about the residual activity [38] of the same compound?
Answer: 100%

Question: And the residual activity [39]?
Answer: 100%

Question: What about the residual activity [40] of the same compound?
Answer: 95%

Question: And the residual activity [41]?
Answer: 100%

Question: And the residual activity [42]?
Answer: 100%

Question: What about the residual activity [43] of the same compound?
Answer: 97%

Question: What about the residual activity [44] of the same compound?
Answer: 100%

Question: What about the residual activity [45] of the same compound?
Answer: 100%

Question: Which results are given for `c1ccc(N2CCN(Cc3nc4ccccc4[nH]3)CC2)nc1` [ABT-724]?
Answer: residual activity [1]: 100%; residual activity [2]: 97%; residual activity [3]: 100%; residual activity [4]: 0%; residual activity [5]: 96%; residual activity [6]: 91%; residual activity [7]: 100%; residual activity [8]: 100%; residual activity [9]: 100%; residual activity [10]: 100%; residual activity [11]: 100%; residual activity [12]: 100%; residual activity [13]: 86%; residual activity [14]: 90%; residual activity [15]: 100%; residual activity [16]: 100%; residual activity [17]: 100%; residual activity [18]: 100%; residual activity [19]: 97%; residual activity [20]: 100%; residual activity [21]: 100%; residual activity [22]: 100%; residual activity [23]: 100%; residual activity [24]: 100%; residual activity [25]: 99%; residual activity [26]: 100%; residual activity [27]: 100%; residual activity [28]: 100%; residual activity [29]: 100%; residual activity [30]: 100%; residual activity [31]: 100%; residual activity [32]: 100%; residual activity [33]: 100%; residual activity [34]: 100%; residual activity [35]: 100%; residual activity [36]: 100%; residual activity [37]: 95%; residual activity [38]: 100%; residual activity [39]: 97%; residual activity [40]: 100%; residual activity [41]: 100%; residual activity [42]: 87%; residual activity [43]: 84%; residual activity [44]: 97%; residual activity [45]: 100%

From ChEMBL document CHEMBL4507260 (2021)
